Publication PMC11954892, “β-Carotene alleviates substrate inhibition caused by asymmetric cooperativity” (Nature Communications, 2025)

Columns and labels:
[1] = molecular target: T1, NbUGT72AY1 (Nicotiana benthamiana, UniProt A0A8K1ZRH3); experiment: X-ray co-crystal structure (ternary complex with scopoletin); type: binding
T1 sequence (A0A8K1ZRH3 1-477): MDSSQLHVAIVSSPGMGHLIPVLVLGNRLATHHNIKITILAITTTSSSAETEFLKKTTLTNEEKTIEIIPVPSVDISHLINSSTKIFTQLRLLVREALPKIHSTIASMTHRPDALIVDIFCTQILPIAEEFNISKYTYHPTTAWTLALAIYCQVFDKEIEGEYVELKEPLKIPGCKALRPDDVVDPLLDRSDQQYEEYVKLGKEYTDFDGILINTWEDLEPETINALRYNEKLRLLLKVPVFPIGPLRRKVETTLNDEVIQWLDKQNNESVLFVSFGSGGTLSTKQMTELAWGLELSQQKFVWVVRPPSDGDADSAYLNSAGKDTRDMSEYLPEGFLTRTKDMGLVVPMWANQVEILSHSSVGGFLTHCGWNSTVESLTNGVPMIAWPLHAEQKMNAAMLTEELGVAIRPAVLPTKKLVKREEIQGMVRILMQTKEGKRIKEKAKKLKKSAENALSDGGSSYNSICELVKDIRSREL

[2] = molecular target: T1, NbUGT72AY1; experiment: UDP-Glo glucosyltransferase assay, purified enzyme (reactivation of substrate-inhibited enzyme); type: biochemical; parameters: N-terminal GST tag
[3] = molecular target: T1, NbUGT72AY1; experiment: HDX-MS; inhibition of UDPG glucohydrolase and relief of substrate inhibition (UDP-Glo, purified enzyme); type: binding
[4] = molecular target: T1, NbUGT72AY1; experiment: ITC ([…] stoichiometry); co-crystal structures; HDX-MS; enzyme kinetics; type: binding
[5] = molecular target: T1, NbUGT72AY1; experiment: HDX-MS; CD; inhibition of UDPG glucohydrolase and relief of substrate inhibition (UDP-Glo, purified enzyme); type: binding

Structure (SMILES): O=c1ccn([C@@H]2O[C@H](COP(=O)(O)OP(=O)(O)O[C@H]3O[C@H](CO)[C@@H](O)[C@H](O)[C@H]3F)[C@@H](O)[C@H]2O)c(=O)[nH]1 [UDP2FG]
- X-ray co-crystal structure (ternary complex with scopoletin) [1]: ternary complex V (NbUGT72AY1•scopoletin/UDP2FG: 9J9K) most of the protein residues are visible in the electron density maps

Structure (SMILES): CC(C)=CCC/C(C)=C/C=C/C(C)=C/C=C/C(C)=C/C=C/C=C(C)/C=C/C=C(C)/C=C/C=C(\C)CCC=C(C)C [lycopene]
- UDP-Glo glucosyltransferase assay, purified enzyme (reactivation of substrate-in) [2]: Even acyclic lycopene shows a concentration-dependent reactivation of the substrate-inhibited enzyme.

Structure (SMILES): CC1=C(/C=C/C(C)=C/C=C/C(C)=C/CO)C(C)(C)CCC1 [retinol]
- HDX-MS; inhibition of UDPG glucohydrolase and relief of substrate inhibition (UD) [3]: concentration-dependent reactivation of the substrate-inhibited enzyme by β-carotene, β-apo-8’-carotenal, and retinol was detected

Structure (SMILES): COc1cc2ccc(=O)oc2cc1O [scopoletin]
- Kd [4]: 4.5 ± 1.1 µM

Structure (SMILES): CC1=C(/C=C/C(C)=C/C=C/C(C)=C/C=C/C=C(C)/C=C/C=C(\C)C=O)C(C)(C)CCC1 [β-apo-8’-carotenal]
- HDX-MS; inhibition of UDPG glucohydrolase and relief of substrate inhibition (UD) [3]: concentration-dependent reactivation of the substrate-inhibited enzyme by β-carotene, β-apo-8’-carotenal, and retinol was detected

Structure (SMILES): CC1=C(/C=C/C(C)=C/C=C/C(C)=C/C=C/C=C(C)/C=C/C=C(C)/C=C/C2=C(C)CCCC2(C)C)C(C)(C)CCC1 [β-carotene]
- HDX-MS; CD; inhibition of UDPG glucohydrolase and relief of substrate inhibition [5]: with β-carotene being the most potent in suppressing glucohydrolase activity in accordance with its strong inhibition of SI
